pEC50, pIC50: −log10 of the molar value. Activity calls are given as the source filed them. No cut-off for these calls is given here.
What was measured:
[1] = target: T1, Protein cereblon/Histone deacetylase 8 (Homo sapiens) (UniProt Q9BY41+Q96SW2); assay: Protac activity at CRBN/HDAC8 in human A549 cells assessed as degradation of HDAC8 at 2 uM measured after 20 hrs by Western blot analysis relative to control; assay type: cell-based
[2] = target: T1, Protein cereblon/Histone deacetylase 8 (Homo sapiens); assay: Protac activity at CRBN/HDAC8 in human A549 cells assessed as degradation of HDAC8 at 200 nM measured after 20 hrs by Western blot analysis relative to control; assay type: cell-based
[3] = target: T2, Histone deacetylase 8 (Homo sapiens) (UniProt Q9BY41); assay: Induction of degradation in HDAC8 in human A549 cells at 200 nM measured after 20 hrs by Western blot analysis relative to control; assay type: cell-based
T2 sequence (whole entry): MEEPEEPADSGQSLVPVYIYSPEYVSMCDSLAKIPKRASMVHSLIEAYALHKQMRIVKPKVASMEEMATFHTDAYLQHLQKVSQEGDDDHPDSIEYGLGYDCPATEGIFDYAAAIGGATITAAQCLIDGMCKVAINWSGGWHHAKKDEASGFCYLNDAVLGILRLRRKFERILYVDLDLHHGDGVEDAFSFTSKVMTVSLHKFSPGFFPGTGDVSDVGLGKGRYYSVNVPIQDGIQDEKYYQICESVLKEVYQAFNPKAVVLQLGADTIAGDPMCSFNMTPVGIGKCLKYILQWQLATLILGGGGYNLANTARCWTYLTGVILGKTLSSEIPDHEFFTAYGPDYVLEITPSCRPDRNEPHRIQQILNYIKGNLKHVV

[4] = target: T2, Histone deacetylase 8 (Homo sapiens); assay: Induction of degradation in HDAC8 in human A549 cells at 10 uM incubated for 2 hrs by Western blot analysis; assay type: cell-based
[5] = target: T2, Histone deacetylase 8 (Homo sapiens); assay: Induction of degradation in HDAC8 in human A549 cells at 2 microM measured after 20 hrs by Western blot analysis relative to control; assay type: cell-based
[6] = target: T3, von Hippel-Lindau disease tumor suppressor/Histone deacetylase 8 (Homo sapiens) (UniProt Q9BY41+P40337); assay: Protac activity at VHL/HDAC8 in human A549 cells assessed as degradation of HDAC8 at 200 nM measured after 20 hrs by Western blot analysis relative to control; assay type: cell-based
T3 sequence (P40337 whole entry, looked up, one chain of several): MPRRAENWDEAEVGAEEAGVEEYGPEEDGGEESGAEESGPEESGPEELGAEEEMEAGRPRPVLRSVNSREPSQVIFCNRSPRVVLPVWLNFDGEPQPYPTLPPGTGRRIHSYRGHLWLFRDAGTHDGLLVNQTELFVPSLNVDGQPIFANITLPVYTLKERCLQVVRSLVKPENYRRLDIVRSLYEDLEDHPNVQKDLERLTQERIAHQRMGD

[7] = target: T3, von Hippel-Lindau disease tumor suppressor/Histone deacetylase 8 (Homo sapiens); assay: Protac activity at VHL/HDAC8 in human A549 cells assessed as degradation of HDAC8 at 2 uM measured after 20 hrs by Western blot analysis relative to control; assay type: cell-based
[8] = target: T1, Protein cereblon/Histone deacetylase 8 (Homo sapiens); assay: Protac activity at CRBN/HDAC8 in human A549 cells assessed as maximum degradation at 10 uM incubated for 20 hrs by ELISA method relative to control; assay type: cell-based
[9] = target: Cereblon/Ikaros (Homo sapiens) (UniProt Q96SW2+Q13422); assay: Protac activity at CRBN/IKZF1 in human A549 cells assessed as reduction in IKZF1 protein level at 10 uM by Western blot analysis; assay type: cell-based
A549 [10] = assay: Antiproliferative activity against human A549 cells assessed as inhibition of cell growth measured after 72 hrs by CCK-8 method; assay type: functional, cell-based; conditions: for pIC50: A549, 72 h; for Activity: dose <= 1.5 µM
[11] = target: Protein cereblon/Histone deacetylase 8 (Homo sapiens, UniProt Q96SW2+Q9BY41); assay: Protac activity at CRBN/HDAC8 in human A549 cells assessed as degradation of HDAC8 incubated for 20 hrs by ELISA method; assay type: cell-based
Sequence of Protein cereblon/Histone deacetylase 8 (Q96SW2 whole entry, one chain of several): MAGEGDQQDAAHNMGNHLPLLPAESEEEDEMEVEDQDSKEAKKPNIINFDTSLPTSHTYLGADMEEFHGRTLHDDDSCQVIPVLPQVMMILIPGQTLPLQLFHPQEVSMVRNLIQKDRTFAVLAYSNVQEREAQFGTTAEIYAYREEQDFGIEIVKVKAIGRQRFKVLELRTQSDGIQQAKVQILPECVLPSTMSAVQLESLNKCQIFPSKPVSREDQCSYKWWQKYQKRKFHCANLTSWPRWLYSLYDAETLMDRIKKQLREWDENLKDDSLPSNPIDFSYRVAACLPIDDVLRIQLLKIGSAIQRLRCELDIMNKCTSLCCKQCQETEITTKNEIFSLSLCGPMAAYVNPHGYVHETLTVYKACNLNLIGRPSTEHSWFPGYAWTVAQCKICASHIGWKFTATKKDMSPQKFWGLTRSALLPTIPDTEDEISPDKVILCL

[12] = target: T1, Protein cereblon/Histone deacetylase 8 (Homo sapiens); assay: Protac activity at CRBN/HDAC8 in human A549 cells assessed as reduction in HDAC8 protein level at 0.1 to 10 uM by Western blot analysis; assay type: cell-based; conditions: dose 0.1-10 µM
A549 [13] = assay: Induction of apoptosis in human A549 cells assessed as early apoptotic cells at 40 uM measured after 72 hrs by annexin V-FITC staining based flow cytometry (reference value: 0.13%); assay type: functional
A549 [14] = assay: Induction of apoptosis in human A549 cells assessed as viable cells at 40 uM measured after 72 hrs by annexin V-FITC staining based flow cytometry (reference value: 99.1%); assay type: functional; conditions: read-out: Activity
A549 [15] = assay: Induction of apoptosis in human A549 cells assessed as early apoptotic cells at 10 uM measured after 72 hrs by annexin V-FITC staining based flow cytometry (reference value: 0.13%); assay type: functional
A549 [16] = assay: Induction of apoptosis in human A549 cells assessed as late apoptotic cells at 40 uM measured after 72 hrs by annexin V-FITC staining based flow cytometry (reference value: 0.20%); assay type: functional
A549 [17] = assay: Induction of apoptosis in human A549 cells assessed as necrotic cells at 20 uM measured after 72 hrs by annexin V-FITC staining based flow cytometry (reference value: 0.005%); assay type: functional
A549 [18] = assay: Induction of apoptosis in human A549 cells assessed as necrotic cells at 30 uM measured after 72 hrs by annexin V-FITC staining based flow cytometry (reference value: 0.005%); assay type: functional
A549 [19] = assay: Induction of apoptosis in human A549 cells assessed as late apoptotic cells at 10 uM measured after 72 hrs by annexin V-FITC staining based flow cytometry (reference value: 0.20%); assay type: functional
A549 [20] = assay: Antiproliferative activity against human A549 cells assessed as inhibition of cell growth measured after 72 hrs under irradiation by CCK-8 method; assay type: functional, cell-based; conditions: A549, light or radiation study
A549 [21] = assay: Induction of apoptosis in human A549 cells assessed as viable cells at 20 uM measured after 72 hrs by annexin V-FITC staining based flow cytometry (reference value: 99.1%); assay type: functional; conditions: read-out: Activity
A549 [22] = assay: Induction of apoptosis in human A549 cells assessed as viable cells at 10 uM measured after 72 hrs by annexin V-FITC staining based flow cytometry (reference value: 99.1%); assay type: functional; conditions: read-out: Activity
A549 [23] = assay: Induction of apoptosis in human A549 cells assessed as late apoptotic cells at 30 uM measured after 72 hrs by annexin V-FITC staining based flow cytometry (reference value: 0.20%); assay type: functional
A549 [24] = assay: Induction of apoptosis in human A549 cells assessed as early apoptotic cells at 30 uM measured after 72 hrs by annexin V-FITC staining based flow cytometry (reference value: 0.13%); assay type: functional
A549 [25] = assay: Induction of apoptosis in human A549 cells assessed as viable cells at 30 uM measured after 72 hrs by annexin V-FITC staining based flow cytometry (reference value: 99.1%); assay type: functional; conditions: read-out: Activity
A549 [26] = assay: Induction of apoptosis in human A549 cells assessed as late apoptotic cells at 20 uM measured after 72 hrs by annexin V-FITC staining based flow cytometry (reference value: 0.20%); assay type: functional
A549 [27] = assay: Induction of apoptosis in human A549 cells assessed as necrotic cells at 40 uM measured after 72 hrs by annexin V-FITC staining based flow cytometry (reference value: 0.005%); assay type: functional
A549 [28] = assay: Induction of apoptosis in human A549 cells assessed as early apoptotic cells at 20 uM measured after 72 hrs by annexin V-FITC staining based flow cytometry (reference value: 0.13%); assay type: functional
A549 [29] = assay: Induction of apoptosis in human A549 cells assessed as necrotic cells at 10 uM measured after 72 hrs by annexin V-FITC staining based flow cytometry (reference value: 0.005%); assay type: functional

T1 sequence (Q96SW2 whole entry, looked up, one chain of several): as the sequence (Q96SW2 whole entry, one chain of several) above

O=C1CCC(N2C(=O)c3cccc(NCc4cn(CCOCCOCCOCCOc5ccc(Cn6ccc7ccc(C(=O)NO)cc76)cc5)nn4)c3C2=O)C(=O)N1 (stereo not given)
Activity [1]: 65.9% | Activity [2]: 36.5%

Nc1cccc2c1C(=O)N(C1CCC(=O)NC1=O)C2=O (stereo not given)
Activity [3]: 9.5% | Activity [4]: inactive | Activity [5]: 12.8%

Cc1ncsc1-c1ccc([C@H](C)NC(=O)[C@@H]2C[C@@H](O)CN2C(=O)[C@@H](NC(=O)CCCOc2ccc(Cn3ccc4ccc(C(=O)NO)cc43)cc2)C(C)(C)C)cc1
Activity [6]: 15.9% | Activity [7]: 26.4%

O=C1CCC(N2C(=O)c3cccc(NCCc4cn(CCOCCOc5ccc(Cn6ccc7ccc(C(=O)NO)cc76)cc5)nn4)c3C2=O)C(=O)N1 (stereo not given)
Activity [1]: 71.2% | Activity [2]: 29.4%

O=C1CCC(N2C(=O)c3cccc(NCc4cn(CCCCCOc5ccc(Cn6ccc7ccc(C(=O)NO)cc76)cc5)nn4)c3C2=O)C(=O)N1 (stereo not given)
Emax [8]: 90.2% | Activity [9]: Active | pIC50 (A549 [10]): 4.90 | Activity (A549 [10]): Dose-Dependent Effect | pEC50 [11]: 6.21 | Activity [1]: 85.9% | Activity [12]: Active | Activity [2]: 39.5%

Cc1ncsc1-c1ccc([C@H](C)NC(=O)[C@@H]2C[C@@H](O)CN2C(=O)[C@@H](NC(=O)COCCOCCOCCOCCOc2ccc(Cn3ccc4ccc(C(=O)NO)cc43)cc2)C(C)(C)C)cc1
Activity [6]: 28.6% | Activity [7]: 72.9%

O=C1CCC(N2C(=O)c3cccc(NCc4cn(CCCCOc5ccc(Cn6ccc7ccc(C(=O)NO)cc76)cc5)nn4)c3C2=O)C(=O)N1 (stereo not given)
Emax [8]: 90.2% | Activity [9]: Active | pIC50 (A549 [10]): 5.15 | Activity (A549 [10]): Dose-Dependent Effect | pEC50 [11]: 6.33 | Activity [1]: 83.6% | Activity [12]: Active | Activity [2]: 30.6%

COc1ccc(Cn2ccc3ccc(C(=O)NO)cc32)cc1
Activity (A549 [13]): 46.3% | viability at 40 µM (A549 [14]): 28.6% | Activity (A549 [15]): 42% | Activity (A549 [16]): 24.9% | Activity (A549 [17]): 0.67% | Activity (A549 [18]): 0.47% | Activity [3]: 3.6% | Activity (A549 [19]): 11.7% | pIC50 (A549 [10]): 4.80 | pIC50 (A549 [20]): 4.88 | viability at 20 µM (A549 [21]): 29% | viability at 10 µM (A549 [22]): 45.6% | Activity (A549 [23]): 12% | Activity (A549 [24]): 63% | viability at 30 µM (A549 [25]): 24.6% | Activity (A549 [26]): 9.71% | Activity (A549 [27]): 1.21% | Activity [5]: 5% | Activity (A549 [28]): 50.7% | Activity (A549 [29]): 0.7%

O=C1CCC(N2C(=O)c3cccc(NCc4cn(CCCCCCOc5ccc(Cn6ccc7ccc(C(=O)NO)cc76)cc5)nn4)c3C2=O)C(=O)N1 (stereo not given)
pEC50 [11]: 6.24 | Activity [1]: 59.7% | Activity [2]: 28.5%

From ChEMBL document CHEMBL5316263, “Structure-Based Discovery of Selective Histone Deacetylase 8 Degraders with Potent Anticancer Activity” (J Med Chem, 2023)
